This passage reports IC50 results from BindingDB's records for doi:10.1021/ml200030q (2011).

A short description of one assay: Antagonist activity at mouse CCR2 assessed as inhibition of MCP1-induced chemotaxis after 30 mins.
Consider `Cc1ccc([C@]2(O)CC[C@H](N3CC[C@@H](NC(=O)CNC(=O)c4cccc(C(F)(F)F)c4)C3)CC2)cc1`, for which the IC50 worked out at 156 nM.

The nature of another assay: Antagonist activity at CCR2 in human PBMC assessed as inhibition of MCP1-induced chemotaxis after 30 mins.
With `O=C(CNC(=O)c1cccc(C(F)(F)F)c1)N[C@@H]1CCN([C@H]2CC[C@@](O)(c3cccnc3)CC2)C1`, the IC50 came out at 3.9 nM.
Same read-out and setting: as for `O=C(CNC(=O)c1cccc(C(F)(F)F)c1)N[C@@H]1CCN([C@H]2CC[C@@](O)(c3ccncc3)CC2)C1`, the figure is 3 nM; as for `O=C(CNC(=O)c1cccc(C(F)(F)F)c1)N[C@@H]1CCN([C@H]2CC[C@@](O)(c3ncccn3)CC2)C1`, 9.3 nM.
On the same count and under the same terms, the value for `O=C(CNC(=O)c1cccc(C(F)(F)F)c1)N[C@@H]1CCN([C@H]2CC[C@@](O)(c3cncnc3)CC2)C1` was 20 nM; that for `O=C(CNC(=O)c1cccc(C(F)(F)F)c1)N[C@@H]1CCN([C@H]2CC[C@@](O)(c3cccnn3)CC2)C1` was 5.8 nM.
Same read-out and setting: the value for `O=C(CNC(=O)c1cccc(C(F)(F)F)c1)N[C@@H]1CCN([C@H]2CC[C@@](O)(c3ccnnc3)CC2)C1` was 7.2 nM; that for `Cc1ccc([C@]2(O)CC[C@H](N3CC[C@@H](NC(=O)CNC(=O)c4cccc(C(F)(F)F)c4)C3)CC2)cn1` was 5.6 nM.
With `CCOc1ccc([C@]2(O)CC[C@H](N3CC[C@@H](NC(=O)CNC(=O)c4cccc(C(F)(F)F)c4)C3)CC2)cn1`, the IC50 came to 2.7 nM.
